# Experimental data published in patent US9056832B2, “Pyridine compounds and the users thereof” (Purdue Pharma L.P., priority 2010, dated 2015).
# Molecular target: human Nav1.7 (Homo sapiens (Human), UniProt Q15858)
# Experiment: FLIPR or FLIPR TETRA sodium dye assay with KCl and test article pre-incubation
# Format: cell-based
# Conditions: read-out: Nav1.7 IC50 (μM) ± SEM
# human Nav1.7, sequence (Q15858 other isoform, or with tags, fused parts or gaps): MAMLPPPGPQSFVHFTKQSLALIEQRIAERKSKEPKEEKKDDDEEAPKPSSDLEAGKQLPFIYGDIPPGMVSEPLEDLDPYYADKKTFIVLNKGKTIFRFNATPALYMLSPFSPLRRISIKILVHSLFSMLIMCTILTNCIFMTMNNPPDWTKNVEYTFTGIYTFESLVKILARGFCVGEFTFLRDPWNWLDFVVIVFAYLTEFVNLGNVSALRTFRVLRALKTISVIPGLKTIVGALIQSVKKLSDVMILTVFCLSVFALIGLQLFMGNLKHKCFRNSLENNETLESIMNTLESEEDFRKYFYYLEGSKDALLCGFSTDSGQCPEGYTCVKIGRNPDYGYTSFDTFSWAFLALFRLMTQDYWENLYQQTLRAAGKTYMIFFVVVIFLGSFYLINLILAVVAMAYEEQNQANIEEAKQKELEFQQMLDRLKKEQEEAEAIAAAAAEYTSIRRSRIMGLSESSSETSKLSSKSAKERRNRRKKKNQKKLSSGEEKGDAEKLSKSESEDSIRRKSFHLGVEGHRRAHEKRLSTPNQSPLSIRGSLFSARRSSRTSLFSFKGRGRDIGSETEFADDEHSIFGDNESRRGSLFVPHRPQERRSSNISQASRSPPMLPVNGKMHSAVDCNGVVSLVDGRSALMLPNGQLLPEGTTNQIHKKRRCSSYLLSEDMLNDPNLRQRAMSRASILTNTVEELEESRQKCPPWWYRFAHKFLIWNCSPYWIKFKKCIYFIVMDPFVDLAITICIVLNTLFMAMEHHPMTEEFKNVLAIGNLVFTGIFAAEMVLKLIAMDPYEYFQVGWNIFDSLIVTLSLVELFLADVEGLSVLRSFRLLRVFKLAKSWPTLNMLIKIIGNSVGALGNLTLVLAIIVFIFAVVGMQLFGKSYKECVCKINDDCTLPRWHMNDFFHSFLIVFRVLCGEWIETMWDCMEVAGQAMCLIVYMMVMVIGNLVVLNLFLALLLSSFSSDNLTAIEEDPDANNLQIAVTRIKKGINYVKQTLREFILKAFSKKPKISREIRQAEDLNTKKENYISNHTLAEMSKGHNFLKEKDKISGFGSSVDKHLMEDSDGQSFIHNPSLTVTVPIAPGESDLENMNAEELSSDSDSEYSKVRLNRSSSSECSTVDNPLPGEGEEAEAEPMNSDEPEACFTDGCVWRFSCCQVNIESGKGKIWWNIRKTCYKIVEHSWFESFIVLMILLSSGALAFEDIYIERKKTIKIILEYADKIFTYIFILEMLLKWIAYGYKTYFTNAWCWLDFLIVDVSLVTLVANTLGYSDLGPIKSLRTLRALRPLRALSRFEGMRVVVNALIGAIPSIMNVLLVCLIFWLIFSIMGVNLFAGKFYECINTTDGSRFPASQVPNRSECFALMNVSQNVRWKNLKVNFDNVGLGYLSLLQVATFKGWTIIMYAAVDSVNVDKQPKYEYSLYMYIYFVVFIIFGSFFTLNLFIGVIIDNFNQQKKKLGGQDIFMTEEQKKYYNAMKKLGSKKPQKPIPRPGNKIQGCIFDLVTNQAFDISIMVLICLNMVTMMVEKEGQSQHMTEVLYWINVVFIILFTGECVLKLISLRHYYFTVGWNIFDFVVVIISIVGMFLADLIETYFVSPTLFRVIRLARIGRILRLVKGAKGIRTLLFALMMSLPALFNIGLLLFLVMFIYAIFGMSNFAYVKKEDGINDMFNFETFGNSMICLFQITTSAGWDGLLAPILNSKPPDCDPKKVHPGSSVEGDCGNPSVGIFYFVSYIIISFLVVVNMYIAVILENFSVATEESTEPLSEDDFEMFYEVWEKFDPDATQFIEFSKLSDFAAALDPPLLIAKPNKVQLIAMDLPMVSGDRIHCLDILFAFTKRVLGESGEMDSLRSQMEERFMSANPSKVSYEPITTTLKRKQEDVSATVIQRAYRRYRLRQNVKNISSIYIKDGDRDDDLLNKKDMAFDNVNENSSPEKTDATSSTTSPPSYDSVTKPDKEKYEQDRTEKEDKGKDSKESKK
row,Structure (SMILES),IC50
1,"NC(=O)c1cc(O)cc(-c2ccc(Oc3ccc(F)cc3)cc2)n1 [compound 136, 6-(4-(4-fluorophenoxy)phenyl)-4-hydroxy picolinamide]",> 20 µM
2,"NC(=O)c1cc(-c2ccc(-c3ccc(F)cc3)cc2)cc([C@H](O)CO)n1 [compound 160, 6-((S)-1,2-Dihydroxy-ethyl)-4-(4′-fluoro-biphenyl-4-yl)pyridine-2-carboxylic acid amide]",0.49 ± 0.12 µM
3,"C[C@H](Nc1cc(C(N)=O)nc(-c2ccc(Oc3ccc(F)cc3)cc2)c1)C(N)=O [compound 167, (S)-4-((1-amino-1-oxopropan-2-yl)amino)-6-(4-(4-fluorophenoxy)phenyl) picolinamide]",0.73 ± 0.1 µM

# Same assay, conditions: recombinant human Nav1.7 in HEK293 cells; CoroNa Green sodium dye; veratridine + scorpion venom; read-out: Nav1.7 IC50 (μM) ± SEM
row,Structure (SMILES),IC50
1,"NC(=O)c1cc(-c2ccc(Oc3ccc(F)cc3)cc2)cc(NC(CO)CO)n1 [compound 128, 6-((1,3-dihydroxypropan-2-yl)amino)-4-(4-(4-fluorophenoxy)phenyl) picolinamide]",1.29 ± 0.17 µM
2,"C[C@H](O)[C@@H](O)c1cc(C(N)=O)nc(-c2ccc(Oc3ccc(F)cc3)cc2)c1 [compound 129, 4-((1S,2S)-1,2-dihydroxypropyl)-6-(4-(4-fluorophenoxy)phenyl)picolinamide]",1.74 ± 0.35 µM
3,"O=C(O)c1ccc2ccn(-c3cc(C(=O)O)nc(-c4ccc(Oc5ccc(F)cc5)cc4)c3)c2c1 [compound 130, 1-(2-carboxy-6-(4-(4-fluorophenoxy)phenyl)pyridin-4-yl)-1H-indole-6-carboxylic acid]",2.47 ± 0.73 µM
4,"C[C@@H](O)[C@H](O)c1cc(C(N)=O)nc(-c2ccc(Oc3ccc(F)cc3)cc2)c1 [compound 131, 4-((1R,2R)-1,2-dihydroxypropyl)-6-(4-(4-fluorophenoxy)phenyl)picolinamide]",2.78 ± 0.46 µM
5,"NC(=O)c1cc([C@@H](O)CO)cc(-c2ccc(Oc3ccc(C(F)(F)F)cn3)cc2)n1 [compound 132, (R)-4-(1,2-dihydroxyethyl)-6-(4-((5-(trifluoromethyl)pyridin-2-yl)oxy)phenyl)picolinamide]",2.78 ± 0.75 µM
6,"NC(=O)c1cc(NC(CO)CO)cc(-c2ccc(Oc3ccc(F)cc3)cc2)n1 [compound 133, 4-((1,3-dihydroxypropan-2-yl)amino)-6-(4-(4-fluorophenoxy)phenyl) picolinamide]",3.08 ± 0.59 µM
7,"NC(=O)c1cc(C[C@@H](O)CO)cc(-c2ccc(Oc3ccc(F)cc3)cc2)n1 [compound 134, (R)-4-(2,3-dihydroxypropyl)-6-(4-(4-fluorophenoxy)phenyl)picolinamide]",3.9 ± 0.34 µM
8,"NC(=O)c1cc(C[C@H](O)CO)cc(-c2ccc(Oc3ccc(F)cc3)cc2)n1 [compound 135, (S)-4-(2,3-dihydroxypropyl)-6-(4-(4-fluorophenoxy)phenyl)picolinamide]",7.26 ± 0.34 µM
9,"O=S(=O)(Nc1ccc(-c2cccc([C@H](O)CO)n2)cc1)c1ccc(F)cc1 [compound 137, (S)-N-(4-(6-(1,2-dihydroxyethyl)pyridin-2-yl)phenyl)-4-fluorobenzene sulfonamide]",> 20 µM
10,"NC(=O)c1cc([C@H](O)CO)cc(-c2ccc(Oc3ccc(Cl)cc3F)cc2)n1 [compound 140, (S)-6-(4-(4-chloro-2-fluorophenoxy)phenyl)-4-(1,2-dihydroxyethyl) picolinamide]",0.07 ± 0.01 µM
11,"NC(=O)c1cc([C@@H](O)CO)cc(-c2ccc(Oc3ccc(Cl)cc3F)cc2)n1 [compound 141, (R)-6-(4-(4-chloro-2-fluorophenoxy)phenyl)-4-(1,2-dihydroxyethyl) picolinamide]",0.07 ± 0.01 µM
12,"NC(=O)c1cc([C@@H](O)CO)cc(-c2cccc(Oc3ccc(F)cc3)c2)n1 [compound 142, 4-((R)-1,2-dihydroxy-ethyl)-6-[3-(4-fluoro-phenoxy)-phenyl]-pyridine-2-carboxylic acid amide]",5.3 ± 1.6 µM
13,"NC(=O)c1cc(-c2ccc(Oc3ccc(F)cc3)cc2)cc(N(CC(=O)O)c2ccccc2)n1 [compound 143, ({6-Carbamoyl-4-[4-(4-fluoro-phenoxy)-phenyl]-pyridin-2-yl}phenyl-amino)-acetic acid]",> 20 µM
14,"NC(=O)c1cc(-c2ccc(Oc3ccc(F)cc3)cc2)cc(N(CCC(=O)O)c2ccccc2)n1 [compound 144, 3-({6-Carbamoyl-4-[4-(4-fluoro-phenoxy)-phenyl]-pyridin-2-yl}phenyl-amino)-propionic acid]",> 20 µM
15,"NC(=O)c1cc(N(CCC(=O)O)c2ccccc2)cc(-c2ccc(Oc3ccc(F)cc3)cc2)n1 [compound 145, 3-({2-Carbamoyl-6-[4-(4-fluoro-phenoxy)-phenyl]-pyridin-4-yl}phenyl-amino)-propionic acid]",1.25 ± 0.03 µM
16,"CN(c1ccccc1)c1cc(-c2ccc(Oc3ccc(C#N)cc3)cc2)cc(C(N)=O)n1 [compound 146, 4-[4-(4-Cyano-phenoxy)-phenyl]-6-(methyl-phenyl-amino)-pyridine2-carboxylic acid amide]",0.09 ± 0.004 µM
17,"CN(c1ccccc1)c1cc(C(N)=O)nc(-c2ccc(Oc3ccc(C#N)cc3)cc2)c1 [compound 147, 6-[4-(4-Cyano-phenoxy)-phenyl]-4-(methyl-phenyl-amino)-pyridine-2-carboxylic acid amide]",1.6 ± 0.26 µM

row,Structure (SMILES),IC50
1,"CN(c1ccccc1)c1cc(-c2ccc(Oc3ccc(C(F)(F)F)cc3)cc2)cc(C(N)=O)n1 [compound 148, 6-(Methyl-phenyl-amino)-4-[4-(4-trifluoromethyl-phenoxy)phenyl]-pyridine-2-carboxylic acid amide]",0.25 ± 0.08 µM
2,"CN(c1ccccc1)c1cc(C(N)=O)nc(-c2ccc(Oc3ccc(C(F)(F)F)cc3)cc2)c1 [compound 149, 4-(Methyl-phenyl-amino)-6-[4-(4-trifluoromethyl-phenoxy)phenyl]-pyridine-2-carboxylic acid amide]",10 to 20 µM
3,"NC(=O)c1cc(N(CCc2nn[nH]n2)c2ccccc2)cc(-c2ccc(Oc3ccc(F)cc3)cc2)n1 [compound 150, 6-[4-(4-Fluoro-phenoxy)-phenyl]-4-{phenyl-[2-(2H-tetrazol-5-yl)-ethyl]-amino}-pyridine-2-carboxylic acid amide]",0.46 ± 0.04 µM
4,"NC(=O)c1cc(-c2ccc(Oc3ccc(F)cc3)cc2)cc(N(CCc2nn[nH]n2)c2ccccc2)n1 [compound 151, 4-[4-(4-Fluoro-phenoxy)-phenyl]-6-{phenyl-[2-(2H-tetrazol-5-yl)-ethyl]-amino}-pyridine-2-carboxylic acid amide]",0.16 ± 0.03 µM
5,"O=C(O)c1cc(N(CCc2nn[nH]n2)c2ccccc2)cc(-c2ccc(Oc3ccc(F)cc3)cc2)n1 [compound 152, 6-[4-(4-Fluoro-phenoxy)-phenyl]-4-{phenyl-[2-(2H-tetrazol-5-yl)ethyl]-amino}-pyridine-2-carboxylic acid]",1.87 ± 0.68 µM
6,"O=C(O)c1cc(-c2ccc(Oc3ccc(F)cc3)cc2)cc(N(CCc2nn[nH]n2)c2ccccc2)n1 [compound 153, 4-[4-(4-Fluoro-phenoxy)-phenyl]-6-{phenyl-[2-(2H-tetrazol-5-yl)ethyl]-amino}-pyridine-2-carboxylic acid]",2.13 ± 0.55 µM
7,"NC(=O)c1cc([C@H](O)CO)cc(-c2ccc(-c3ccc(F)cc3)cc2)n1 [compound 154, 4-((S)-1,2-Dihydroxy-ethyl)-6-(4′-fluoro-biphenyl-4-yl)pyridine-2-carboxylic acid amide]",1.12 ± 0.07 µM
8,"NC(=O)c1cc([C@@H](O)CO)cc(-c2ccc(-c3ccc(F)cc3)cc2)n1 [compound 155, 4-((R)-1,2-Dihydroxy-ethyl)-6-(4′-fluoro-biphenyl-4-yl)pyridine-2-carboxylic acid amide]",2.78 ± 0.61 µM
9,"NC(=O)c1cc(-c2ccc(Oc3ccc(OC(F)(F)F)cc3)cc2)cc([C@H](O)CO)n1 [compound 156, 6-((S)-1,2-Dihydroxy-ethyl)-4-[4-(4-trifluoromethoxy-phenoxy)phenyl]-pyridine-2-carboxylic acid amide]",0.13 ± 0.02 µM
10,"NC(=O)c1cc(-c2ccc(Oc3ccc(OC(F)(F)F)cc3)cc2)cc([C@@H](O)CO)n1 [compound 157, 6-((R)-1,2-Dihydroxy-ethyl)-4-[4-(4-trifluoromethoxy-phenoxy)phenyl]-pyridine-2-carboxylic acid amide]",0.12 ± 0.008 µM
11,"NC(=O)c1cc(-c2ccc(Oc3cccc(OC(F)(F)F)c3)cc2)cc([C@H](O)CO)n1 [compound 158, 6-((S)-1,2-Dihydroxy-ethyl)-4-[4-(3-trifluoromethoxy-phenoxy)phenyl]-pyridine-2-carboxylic acid amide]",0.16 ± 0.01 µM
12,"NC(=O)c1cc([C@H](O)CO)cc(-c2ccc(Oc3ccc(OC(F)(F)F)cc3)cc2)n1 [compound 159, 4-((S)-1,2-Dihydroxy-ethyl)-6-[4-(4-trifluoromethoxy-phenoxy)phenyl]-pyridine-2-carboxylic acid amide]",0.3 ± 0.02 µM
13,"NC(=O)c1cc([C@@H](O)CO)cc(-c2ccc(Oc3ccc(OC(F)(F)F)cc3)cc2)n1 [compound 161, 4-((R)-1,2-Dihydroxy-ethyl)-6-[4-(4-trifluoromethoxy-phenoxy)phenyl]-pyridine-2-carboxylic acid amide]",1.38 ± 0.2 µM
14,"NC(=O)c1cc([C@H](O)CO)cc(-c2ccc(Oc3cccc(OC(F)(F)F)c3)cc2)n1 [compound 163, 4-((S)-1,2-Dihydroxy-ethyl)-6-[4-(3-trifluoromethoxy-phenoxy)phenyl]-pyridine-2-carboxylic acid amide]",0.63 ± 0.07 µM
15,"NC(=O)c1cc([C@@H](O)CO)cc(-c2ccc(Oc3cccc(OC(F)(F)F)c3)cc2)n1 [compound 164, 4-((R)-1,2-Dihydroxy-ethyl)-6-[4-(3-trifluoromethoxy-phenoxy)phenyl]-pyridine-2-carboxylic acid amide]",0.49 ± 0.1 µM
16,"C[C@H](Nc1cc(C#N)nc(-c2ccc(Oc3ccc(F)cc3)cc2)c1)C(N)=O [compound 165, (S)-2-((2-cyano-6-(4-(4-fluorophenoxy)phenyl)pyridin-4-yl)amino)propanamide]",1.97 ± 0.49 µM
17,"C[C@H](Nc1cc(C#N)cc(-c2ccc(Oc3ccc(F)cc3)cc2)n1)C(N)=O [compound 166, (S)-2-((4-cyano-6-(4-(4-fluorophenoxy)phenyl)pyridin-2-yl)amino)propanamide]",4.32 ± 1 µM
